Data taken from ChEMBL document CHEMBL1141314, “SAR index: quantifying the nature of structure-activity relationships” (J Med Chem, 2007).

Test: Inhibition of ribonuclease A

Ki | Compound
11.3 µM | Nc1ncnc2c1ncn2[C@@H]1O[C@H](COP(=O)(O)OP(=O)(O)OC2CC(n3ccc(=O)[nH]c3=O)OC2CO)[C@@H](O)[C@H]1O (some centres not stated)
0.027 µM | Nc1ncnc2c1ncn2[C@@H]1O[C@H](COP(=O)(O)OP(=O)(O)O[C@H]2C[C@H](n3ccc(=O)[nH]c3=O)O[C@@H]2COP(=O)(O)O)[C@@H](OP(=O)(O)O)[C@H]1O
